Assay results reported in US9289414B2 (priority 2004, dated 2016).

Assays:
[1] = tested on: SVR cells; experiment: SVR cell proliferation / viability bioassay (angiogenic bioassay); format: cell-based, murine; conditions: FIG. 1
Protocol: Liquid extract of coal tar was concentrated under vacuum to get crude extract (20.0 mg). This extract was applied on a Sephadex LH 20 (3.0×100 cm) column and eluted with MeOH. The elution was monitored by TLC and similar fractions are combined to get 11 fractions. This fraction was assayed for inhibition of SVR cell viability (Arbiser et al. (1999) J. Am. Acad. Dermatol. 40, 925-929; and Bai et al. (2003) J. Biol. Chem. 278, 35501-35507). […] These changes are similar to what is observed when SVR cells are treated with an EGFR tyrosine kinase inhibitor.
Coal tar fractions were tested for their ability to inhibit the proliferation of SVR cells, an established angiogenic bioassay.

[2] = tested on: EGFR; experiment: Drosophila EGFR eye phenotype assay; format: in vivo, Drosophila melanogaster; conditions: treatment of mutant Drosophila
From the text: The epidermal growth factor receptor pathway controls cell fate throughout phylogeny. Binding of secreted ligands to EGFR on the cell surface initiates a cascade of events that ultimately invokes transcriptional changes in the nucleus. Ligand/receptor interactions are of critical importance during Drosophila eye development, as recruitment and differentiation of almost all photoreceptors are dependent on high levels of activation of the EGFR pathway. Binding of activating ligand to EGFR results in a cascade of membranous and cytoplasmic phosphorylation events.
(§1) In order to test whether carbazole and its derivatives affect EGFR, the compounds were tested using a novel EGFR assay that is amenable to high throughput screening.

[3] = tested on: Drosophila embryos; experiment: Normal development of Drosophila embryos; design: species or system Drosophila melanogaster; conditions: in vivo
Protocol: as §1

[4] = tested on: interleukin-15 (IL-15); experiment: IL-15 production by PSK-activated mononuclear cells; format: cell-based, human; conditions: PSK-stimulated mononuclear cells, FIG. 2A
From the text: Cytokine production by mononuclear cells plays an important role in psoriasis. One of the cardinal cytokines involved in the pathogenesis of psoriasis is interleukin-15 (IL-15). IL-15 plays several roles that may be important in psoriasis. […] In addition, IL-15 is angiogenic in vivo.

[5] = tested on: signaling lymphocyte activator molecule associated protein (SAP); experiment: PSK-induced SAP expression in lymphocytes; format: cell-based, human; conditions: FIG. 2B
[6] = tested on: iNOS; experiment: iNOS expression, in vitro translation and Western blot of HEK293 and RAW264.7 cells; format: cell-based; conditions: FIG. 3A-C
Protocol: Reactions were performed at 30° C. for 90 min. Translation products were separated by SDS/PAGE, and bands, representing ^35S-labeled iNOS, were detected by Phosphoimager (Molecular Dynamics). The data shown in FIG. 3A represent two independent experiments done in duplicates.
Transfection and stable cell line production of HEK293 cells was performed by cationic lipid-mediated transient transfection using “LipofectAMINE 2000” (Invitrogen) following manufacturer's instructions. Stable cell line expressing iNOS, were produced by using transfection of iNOS cDNA followed by positive colony selection using G418 (Invitrogen) at concentration of 600 μg/ml. iNOS Induction of mouse macrophages RAW264.7, involved incubating the cells with a mixture of mouse interferon (mIFN)-γ (10 u/ml) and LPS (100 ng/ml).
Cell lysis was performed on collected cells. After gently rinsing the cells twice with phosphate-buffered saline, the cell layer was lysed on ice for 30 min in 40 mM Bis-Tris propane buffer, pH 7.7, 150 mM NaCl, 10% glycerol, 1% Triton-X100 in the presence of protease inhibitors (phenylmethylsulfonyl fluoride (1 mM), pepstatin-A (10 μg/ml), leupeptin (10 μg/ml), aprotinin (10 μg/ml), phenanthroline (10 μg/ml), benzamidine HCl (16 μg/ml)) (PharMingen). […] Total protein concentrations were determined by using a bicinchoninic acid reagent, following the manufacturer's instructions (Pierce). […]

[7] = tested on: Rac; experiment: Rac activation in HUVEC after VEGF stimulation (PAK-1 PBD pull-down); format: cell-based, human; conditions: carbazole 5 mg/ml pretreatment 1 hr, VEGF 20 ng/ml 5 min, FIG. 5
Protocol: Cells were lysed with ice-cold lysis buffer, pH 7.5, containing 25 mmol/liter HEPES, 150 mmol/liter NaCl, 1% IGEPAL CA-630, 0.25% sodium deoxycholate, 10 mmol/liter MgCl2, 10% glycerol, 25 mmol/liter NaF, 1 mmol/liter EDTA, 1 mmol/liter sodium orthovanadate, 10 μg/ml leupeptin, 10 μg/ml aprotinin, and 1 mmol/liter phenylmethylsulfonyl fluoride. Activated (GTP-bound) Rac was affinity-precipitated with p21-activated kinase-1 protein binding domain peptide, which binds only to Rac-GTP and not Rac-GDP.
p21-Activated kinase-1 protein binding domain-agarose (7.5 μg/mg cell lysate, Upstate Biotechnology) was added, and the reaction mixture was gently rocked at 4° C. for 60 min. The agarose beads were collected by pulsing for 5 s in a microcentrifuge at 14,000×g, and the beads were washed three times with 0.5 ml of lysis buffer. The agarose beads were resuspended in 40 μl of 1×SDS sample buffer and boiled for 5 min. The supernatant was separated by SDS-PAGE on a 12% gel, and the proteins were transferred to nitrocellulose membrane. After blocking for 1 h in PBS containing 5% nonfat dry milk and 0.1% Tween 20, the membrane was incubated with anti-Rac antibody (1:1000 dilution, Upstate Biotechnology) overnight. After incubation with the secondary antibody, Rac was detected by enhanced chemiluminescence.

Structure (SMILES) | antiproliferative activity [1] | effect on eye phenotype of mutant Drosophila with active EGFR [2] | effect on normal development of Drosophila embryos [3] | production of IL-15 [4] | SAP expression [5] | levels of nitric oxide synthase enzyme [6] | rac activation in response to VEGF [7]
Oc1ccc2c(c1)[nH]c1ccccc12 [2-hydroxy carbazole, 2-hydroxycarbazole] | more potent antiproliferative activity | – | – | – | – | – | –
Oc1ccc2[nH]c3ccccc3c2c1 [3-hydroxy carbazole, 3-hydroxycarbazole] | more potent antiproliferative activity | – | – | – | – | – | –
Oc1cccc2[nH]c3ccccc3c12 [4-hydroxy carbazole, 4-hydroxycarbazole] | more potent antiproliferative activity | correction of the phenotypic defect | no effect | – | – | – | –
c1ccc2c(c1)[nH]c1ccccc12 [carbazole, 9H-Carbazole] | mild antiproliferative activity | correction of the phenotypic defect | no effect | inhibited production of IL-15 | inhibited | without affecting levels of enzyme | blocks rac activation
